The text below walks through data of patent US8377975B2, “Oxadiazole derivatives for the treatment of diabetes” (Merck Patent Gesellschaft Mit Beschrankter Haftung, priority 2008, dated 2013).

Format in all cases: biochemical
Test [1] addresses T1, SGK2 (Homo sapiens, UniProt Q9HBY8).
T1 sequence (Q9HBY8 1-367): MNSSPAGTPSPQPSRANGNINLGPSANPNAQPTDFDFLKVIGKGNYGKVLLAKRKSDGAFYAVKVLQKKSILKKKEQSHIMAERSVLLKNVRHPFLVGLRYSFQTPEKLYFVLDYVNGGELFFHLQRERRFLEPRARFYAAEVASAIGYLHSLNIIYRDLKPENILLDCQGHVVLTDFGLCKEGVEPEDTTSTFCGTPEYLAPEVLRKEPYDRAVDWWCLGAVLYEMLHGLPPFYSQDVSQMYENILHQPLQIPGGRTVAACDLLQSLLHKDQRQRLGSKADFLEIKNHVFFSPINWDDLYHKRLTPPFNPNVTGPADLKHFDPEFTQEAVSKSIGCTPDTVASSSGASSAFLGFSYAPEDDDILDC
The experiment in a line: SGK2 enzyme inhibition. Particulars: Target SGK2.

Test [2] deals with T2, SGK1 (Homo sapiens, UniProt O00141).
T2 sequence (O00141 1-431): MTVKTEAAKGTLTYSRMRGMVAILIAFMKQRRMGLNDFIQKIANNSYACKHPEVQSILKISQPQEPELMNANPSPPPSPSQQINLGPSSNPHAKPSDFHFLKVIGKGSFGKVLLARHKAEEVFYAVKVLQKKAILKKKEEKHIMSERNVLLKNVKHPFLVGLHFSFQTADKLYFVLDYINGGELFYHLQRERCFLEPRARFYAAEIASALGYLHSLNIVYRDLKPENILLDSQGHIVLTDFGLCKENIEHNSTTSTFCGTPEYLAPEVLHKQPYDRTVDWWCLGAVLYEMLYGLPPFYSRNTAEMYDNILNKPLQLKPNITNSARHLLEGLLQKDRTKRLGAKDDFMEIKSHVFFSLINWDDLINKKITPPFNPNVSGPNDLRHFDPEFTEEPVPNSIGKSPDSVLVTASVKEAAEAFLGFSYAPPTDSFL
Nature of the test: SGK1 enzyme inhibition (filter binding method). To be noted: Target SGK1. An excerpt: Other assays are known from the literature and could readily be performed by the person skilled in the art (see, for example, Dhanabal et al., Cancer Res. 59:189-197; Xin at al., J. Biol. Chem. 274:9116-9121; Sheu et al., Anticancer Res. 18:4435-4441; Ausprunk et al., Dev. Biol. 38:237-248; Gimbrone et al., J. Natl. Cancer Inst. 52:413-427; Nicosia at al., In Vitro 18:538- 549). The inhibition of SGK1 protein kinase can be determined in the filter binding method.

The target of test [3] is T3, SGK3 (Homo sapiens, UniProt Q96BR1).
T3 sequence (Q96BR1 1-496): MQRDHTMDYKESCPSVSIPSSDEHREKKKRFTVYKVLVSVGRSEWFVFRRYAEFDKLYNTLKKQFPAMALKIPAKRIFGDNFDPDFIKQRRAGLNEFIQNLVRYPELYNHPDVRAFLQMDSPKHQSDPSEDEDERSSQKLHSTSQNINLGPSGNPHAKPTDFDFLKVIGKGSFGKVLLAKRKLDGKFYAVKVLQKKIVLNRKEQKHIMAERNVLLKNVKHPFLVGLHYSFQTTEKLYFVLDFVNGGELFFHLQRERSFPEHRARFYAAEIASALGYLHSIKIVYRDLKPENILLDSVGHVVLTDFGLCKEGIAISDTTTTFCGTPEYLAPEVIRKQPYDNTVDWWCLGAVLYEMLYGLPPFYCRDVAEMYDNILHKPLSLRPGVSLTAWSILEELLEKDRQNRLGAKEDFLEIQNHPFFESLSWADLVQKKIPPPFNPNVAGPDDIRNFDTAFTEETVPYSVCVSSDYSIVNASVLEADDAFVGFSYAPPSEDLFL
Nature of the test: SGK3 enzyme inhibition. To be noted: Target SGK3.

Test [4] concerns the target GSK3-beta (Homo sapiens, UniProt P49841). The experiment in a line: GSK3-beta enzyme inhibition. Particulars: Target GSK3-beta.

Chain of GSK3-beta (P49841 whole entry): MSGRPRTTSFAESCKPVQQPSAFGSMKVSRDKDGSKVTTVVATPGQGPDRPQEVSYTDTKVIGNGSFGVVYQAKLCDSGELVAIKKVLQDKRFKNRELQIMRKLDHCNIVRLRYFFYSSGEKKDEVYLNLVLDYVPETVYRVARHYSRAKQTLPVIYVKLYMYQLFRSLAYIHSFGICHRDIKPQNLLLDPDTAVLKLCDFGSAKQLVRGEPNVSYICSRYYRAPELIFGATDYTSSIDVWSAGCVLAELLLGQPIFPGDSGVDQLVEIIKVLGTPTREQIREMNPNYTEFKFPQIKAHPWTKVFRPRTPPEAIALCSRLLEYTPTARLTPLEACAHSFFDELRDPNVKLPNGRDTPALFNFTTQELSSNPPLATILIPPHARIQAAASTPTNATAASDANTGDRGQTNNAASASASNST

The IC50 is the concentration needed to halve the response being measured. A high value points to weaker potency. As for `CCc1c(-c2nnc(NCc3cccc(F)c3)o2)ccc(O)c1C` [Compound A1, 3-ethyl-4-[5-(3-fluorobenzylamino)-1,3,4-oxadiazol-2-yl]-2-methylphenol], the IC50 in test [1], in test [2], in test [3] and in test [4] was 1 to 100 nM each time. `Oc1ccc(-c2nnc(NCc3cccc(F)c3)o2)c(F)c1F` [Compound A6, 2,3-difluoro-4-[5-(3-fluorobenzylamino)-1,3,4-oxadiazol-2-yl]phenol] gave an IC50 in test [2] of more than 10000 nM. In turn, `Oc1ccc(-c2nnc(NCc3cccc(F)c3)o2)nc1` [Compound A5, 6-[5-(3-fluorobenzylamino)-1,3,4-oxadiazol-2-yl]pyridin-3-ol] displayed an IC50 in test [2] of more than 10000 nM.

On to `CCc1c(-c2nnc(NCc3cccc(OC)c3)o2)ccc(O)c1C` [Compound A2], for which the IC50 in test [2] was 1 to 100 nM; in test [4], 100 to 10000 nM. For `CCc1c(-c2nnc(N[C@H](C)c3cccc(OC)c3)o2)ccc(O)c1C` [Compound A3], the IC50 in test [2] and in test [4] was 1 to 100 nM throughout. On to `CCc1c(-c2nnc(N)o2)ccc(O)c1C` [Compound A4, 4-(5-amino-1,3,4-oxadiazol-2-yl)-3-ethyl-2-methylphenol], for which, in test [2], the half-inhibitory concentration (IC50) fell in the range of 100 to 10000 nM.
